According to patent US11130741B2 (Bioimics AB, priority 2016, dated 2021):
Values after ≈ are worked out from the molar mass of the structure shown. Where two headings read alike, the source gives them in different places.

Tests used:
[1] = system: E. coli RNase P RNA, M1 RNA; experiment: Initial inhibition of RNase P activity (normalised cleavage of pATSerUG at maximum compound concentration); assay type: biochemical; details: normalised cleavage (cleavage with compound / without compound)
[2] = system: Escherichia coli (ATCC25922); experiment: MIC, broth microdilution (CLSI), Escherichia coli ATCC25922
[3] = system: Staphylococcus aureus (ATCC25923); experiment: MIC, broth microdilution (CLSI), Staphylococcus aureus ATCC25923; details: ATCC25923, read-out: S. aureus ("Clinical") MIC
[4] = system: E. coli RNase P RNA, M1 RNA; experiment: Inhibition of bacterial RNase P activity, IC50 determination (cleavage of pATSerUG by M1 RNA); assay type: biochemical; details: NI = No inhibition
[5] = system: Enterococcus faecalis (ATCC29212); experiment: MIC, broth microdilution (CLSI), Enterococcus faecalis ATCC29212; assay type: cell-based; details: read-out: MIC E. faecalis ATCC 29212
[6] = system: Pseudomonas aeruginosa (ATCC27853); experiment: microbe, parasite or virus in culture; assay type: cell-based; details: read-out: MIC P. aeruginosa ATCC 27853
[7] = system: Staphylococcus aureus subsp. aureus (ATCC29213); experiment: MIC, broth microdilution (CLSI), Staphylococcus aureus subsp. aureus ATCC29213; assay type: cell-based
[8] = system: H. influenzae ATCC 49247; experiment: MIC, H. influenzae ATCC 49247; assay type: cell-based; details: Haemophilus influenzae, ATCC49247
[9] = system: A. baumannii ATCC 17978; experiment: MIC, A. baumannii ATCC 17978; assay type: cell-based; details: Acinetobacter baumannii, ATCC17978
[10] = system: P. aeruginosa NTUH-974 (MDR); experiment: MIC, P. aeruginosa NTUH-974 (MDR); assay type: cell-based; details: Pseudomonas aeruginosa; read-out: MIC P. aeruginosa NTUH-974 (MDR)
[11] = system: N. gonorrhoeae 612501; experiment: MIC, N. gonorrhoeae 612501; assay type: cell-based; details: Neisseria gonorrhoeae
[12] = system: H. pylori ATCC 43504; experiment: MIC, H. pylori ATCC 43504; assay type: cell-based; details: Helicobacter pylori, ATCC43504
[13] = system: E. faecium ATCC 700221; experiment: MIC, E. faecium ATCC 700221; assay type: cell-based; details: Enterococcus faecium, ATCC700221; read-out: MIC E. faecium ATCC 700221
[14] = system: E. coli JW5503; experiment: MIC, E. coli JW5503; assay type: cell-based; details: Escherichia coli, JW5503, read-out: MIC E. coli JW5503
[15] = system: K. pneumoniae ATCC 43816; experiment: MIC, K. pneumoniae ATCC 43816; assay type: cell-based; details: Klebsiella pneumoniae, ATCC43816
[16] = system: M. phlei ATCC 11758; experiment: MIC, M. phlei ATCC 11758; assay type: cell-based; details: Mycolicibacterium phlei, ATCC11758
[17] = system: S. aureus ATCC 29213; experiment: MIC, S. aureus ATCC 29213 + 50% HS; assay type: cell-based; details: Staphylococcus aureus, ATCC29213
[18] = system: S. aureus MRSA ATCC 33591; experiment: MIC, S. aureus MRSA ATCC 33591; assay type: cell-based; details: Staphylococcus aureus; read-out: MIC S. aureus MRSA ATCC 33591
[19] = system: S. pneumoniae ATCC 49619; experiment: MIC, S. pneumoniae ATCC 49619; assay type: cell-based; details: Streptococcus pneumoniae, ATCC49619
[20] = system: S. aureus USA300 MRSA BAA 1717; experiment: MIC, S. aureus USA300 MRSA BAA 1717; assay type: cell-based; details: Staphylococcus aureus
[21] = system: M. fortuitum ATCC 110; experiment: MIC, M. fortuitum ATCC 110; assay type: cell-based; details: Mycolicibacterium fortuitum, ATCC110
[22] = ATCC25922, read-out: E. coli MIC, Table 15, NI = No inhibition
[23] = ATCC29213, Table 15, read-out: S. aureus ("wound") (MIC)
[24] = ATCC29213, Table 16, read-out: MIC S. aureus ATCC 29213
[25] = ATCC25922, read-out: MIC E. coli ATCC 25922, Table 16

MIC [2, 22] [µg/mL] | MIC [3] [µg/mL] | SMILES | Normalised RNase P cleavage (fraction of control) ([1]; at 8 μM) | IC50 [4] [µM] | MIC [5] [µg/mL] | MIC [6] [µg/mL] | MIC [7, 23] [µg/mL] | MIC [7, 24] [µg/mL] | MIC [8] [µg/mL] | MIC [9] [µg/mL] | MIC [10] [µg/mL] | MIC [11] [µg/mL] | MIC [12] [µg/mL] | MIC [13] [µg/mL] | MIC [14] [µg/mL] | MIC [15] [µg/mL] | MIC [16] [µg/mL] | MIC [17] [µg/mL] | MIC [18] [µg/mL] | MIC [19] [µg/mL] | also measured
> 100 | 4 (≈ 14.2 µM) | Nc1cc(C(F)(F)F)cc2c1Nc1ccccc1S2 [compound 2, 3-(trifluoromethyl)-10H-phenothiazin-1-amine] | 0.42 | – | – | – | – | – | – | – | – | – | – | – | – | – | – | – | – | – | Normalised RNase P cleavage (fraction of control) ([1]; at 10 μM): 0.84
> 100 | 27 (≈ 64.1 µM) | C=CC(=O)N(CCCN(C)C)c1cc(C(F)(F)F)cc2c1Nc1ccccc1S2 [compound 39, N-(3-(dimethylamino)propyl)-N-(3-(trifluoromethyl)-10H-phenothiazin-1-yl)acrylamide] | 0.58 | 76 | – | – | – | – | – | – | – | – | – | – | – | – | – | – | – | – | –

Second part, the compound before the results:

SMILES | MIC [2, 22] [µg/mL] | MIC [3] [µg/mL] | Normalised RNase P cleavage (fraction of control) ([1]; at 8 μM) | IC50 [4] [µM] | MIC [5] [µg/mL] | MIC [6] [µg/mL] | MIC [7, 23] [µg/mL] | MIC [7, 24] [µg/mL] | MIC [8] [µg/mL] | MIC [9] [µg/mL] | MIC [10] [µg/mL] | MIC [11] [µg/mL] | MIC [12] [µg/mL] | MIC [13] [µg/mL] | MIC [14] [µg/mL] | MIC [15] [µg/mL] | MIC [16] [µg/mL] | MIC [17] [µg/mL] | MIC [18] [µg/mL] | MIC [19] [µg/mL] | also measured
NCCC(=O)Nc1cc(C(F)(F)F)cc2c1Nc1ccccc1S2 [compound 30, 3-amino-N-(3-(trifluoromethyl)-10H-phenothiazin-1-yl)propanamide] | 16 (≈ 45.3 µM) | 8 (≈ 22.6 µM) | 0.49 | > 100 | – | – | – | – | – | – | – | – | – | – | – | – | – | – | – | – | –
CN(C)CCCN1c2ccccc2Sc2cc(C(F)(F)F)cc(N)c21 [compound 42, 10-(3-(dimethylamino)propyl)-3-(trifluoromethyl)-10H-phenothiazin-1-amine] | > 100 | 47 (≈ 128 µM) | 1.02 | – | – | – | – | – | – | – | – | – | – | – | – | – | – | – | – | – | –
CC1CC(C)CN(c2ccc3c(c2)Sc2cc(C(F)(F)F)cc(NC4CCN(CCN)CC4)c2N3)C1.Cl.Cl.Cl (stereo not drawn) [compound 274, N-(1-(2-aminoethyl)piperidin-4-yl)-7-(3,5-dimethyl-piperidin-1-yl)-3-(trifluoromethyl)-10H-phenothiazin-1-amine hydrochloride] | 8 | – | – | 24 | 2 | 16 | 1 | 1 | 1 | 4 | 16 | 1 | 16 | 1 | 8 | 4 | 4 | 16 | 1 | 4 | MIC [20]: 1 µg/mL; MIC [21]: 4 µg/mL; MIC [2, 25]: 4 µg/mL
Cl.Cl.NCCN1CCC(Nc2cc(C(F)(F)F)cc3c2Nc2ccc(N4CCCC4)cc2S3)CC1 [compound 284, N-(1-(2-aminoethyl)piperidin-4-yl)-7-(pyrrolidin-1-yl)-3-(trifluoromethyl)-10H-phenothiazin-1-amine hydrochloride] | 8 | – | – | 0.89 | 2 | 32 | 2 | 2 | 8 | 8 | 32 | 2 | 32 | 2 | 4 | 4 | 4 | 32 | 2 | 8 | MIC [20]: 2 µg/mL; MIC [21]: 8 µg/mL; MIC [2, 25]: 4 µg/mL
